Marks after values point to notes of the source that are not given here.
Assays:
[1] = type: physicochemical; settings: for log KOW (eq 5b): corrected for phase volume ratio vO/vW; for migration from water to octanol (log KOW could not be measured): zwitterions
[2] = cited from earlier work
[3] = 1H NMR method, preliminary account in the Magritek laboratory manual; cited from earlier work

log KOW (eq 5b) ([1]; 20–21 °C)	Compound	literature log KOW (ref ([9])) [2]	also measured
0.89	CC(C)CO [2-methylpropanol-1]	0.76	–
–1.03	CN(C)C=O [dimethylformamide]	–	–
0.88	CCOC(C)=O [ethyl acetate]	0.73	–
–0.75	CO [methanol]	–0.77	log KOW (eq 5b), corrected for OH ([1]; 20–21 °C, corrected for phase volume ratio and for OH): −0.71 ^c; log KOW ± SD (eq 4, this work), corrected for OH ([1]; 20–21 °C, n = 5, equal phase volumes assumed, corrected for OH): –0.72 ^c ± 0.016 (n = 5); correction of log KOW for alcohol OH protons ([1]; increase of log KOW): 0.04
0.19	COC(C)=O [methyl acetate]	0.18	–

More lines, now with the values behind:

Compound	log KOW (eq 5b) ([1]; 20–21 °C)	literature log KOW (ref ([9])) [2]	also measured
C1COCCO1 [1,4-dioxane]	–0.31	–0.27	–
CCC(C)O (stereo not shown) [2-butanol]	0.65	0.61	–
CC(C)=O [acetone]	–0.24	–0.24	KOW ([1]; single measurement, eq 4): 0.589; log KOW ([1]; single measurement, eq 4): −0.23; log KOW (ref ([14])) [3]: –0.23
CC#N [acetonitrile]	–0.28	–0.34	log KOW (ref ([14])) [3]: –0.51
C[C@H](N)C(=O)O [alanine]	–	–	migration from water to octanol (log KOW could not be measured) [1]: did not migrate to any detectable extent
CCC(C)=O [butanone]	0.33	0.29	–
C[S+](C)[O-] [dimethyl sulfoxide]	–1.87	–1.35	literature log KOW [2]: −2.03 (ref ([1]))
NCC(=O)O [glycine]	–	–	migration from water to octanol (log KOW could not be measured) [1]: did not migrate to any detectable extent
C1CCOC1 [tetrahydrofuran]	0.44	0.46	log KOW (ref ([14])) [3]: 0.43
